In article PMC2464581, “Pichia stipitis xylose reductase helps detoxifying lignocellulosic hydrolysate by reducing 5-hydroxymethyl-furfural (HMF)” (Biotechnology for Biofuels, 2008):

T1: Pichia stipitis xylose reductase (Ps-XR) (Scheffersomyces stipitis, UniProt P31867)
T1 construct: gene XYL1; XYL1 gene product overproduced in S. cerevisiae TMB3260 (PGK1p-XYL1); purified by Red-Sepharose and gel filtration; no tag mentioned
T1 sequence (P31867 1-318): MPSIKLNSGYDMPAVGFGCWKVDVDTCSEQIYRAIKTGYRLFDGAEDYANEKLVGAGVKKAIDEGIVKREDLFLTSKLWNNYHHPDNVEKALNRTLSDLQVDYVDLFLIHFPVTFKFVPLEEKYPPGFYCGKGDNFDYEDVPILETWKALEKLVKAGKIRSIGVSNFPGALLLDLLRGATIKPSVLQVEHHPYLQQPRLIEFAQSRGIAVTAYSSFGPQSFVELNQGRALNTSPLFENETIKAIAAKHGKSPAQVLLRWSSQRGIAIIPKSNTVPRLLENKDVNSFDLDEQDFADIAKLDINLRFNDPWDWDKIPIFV


Columns and labels:
[1] = molecular target: T1, Pichia stipitis xylose reductase (Ps-XR); assay: NADPH oxidation at […] nm, non-linear regression, substrate-inhibition model with Hill coefficient; assay type: biochemical; conditions: NADPH as cofactor, Hill coefficient n = 3.51, 100 mM phosphate pH 7.0, 30 °C, unit of Ki not printed (Km in mM)
purified protein = substrate: O=Cc1ccc(CO)o1; assay: purified protein; assay type: biochemical, Scheffersomyces stipitis; conditions: NADPH as cofactor, substrate-inhibition model, 100 mM phosphate pH 7.0, 30 °C

Ki [1]	Molecule	Km (purified protein)
95.0	O=Cc1ccc(CO)o1 [HMF]	–
–	Pichia stipitis xylose reductase (Ps-XR) (Scheffersomyces stipitis CBS 6054) (protein, XYL1 gene product overproduced in S. cerevisiae TMB3260 (PGK1p-XYL1); purified by Red-Sepharose and gel filtration; no tag mentioned) MPSIKLNSGYDMPAVGFGCWKVDVDTCSEQIYRAIKTGYRLFDGAEDYANEKLVGAGVKKAIDEGIVKREDLFLTSKLWNNYHHPDNVEKALNRTLSDLQVDYVDLFLIHFPVTFKFVPLEEKYPPGFYCGKGDNFDYEDVPILETWKALEKLVKAGKIRSIGVSNFPGALLLDLLRGATIKPSVLQVEHHPYLQQPRLIEFAQSRGIAVTAYSSFGPQSFVELNQGRALNTSPLFENETIKAIAAKHGKSPAQVLLRWSSQRGIAIIPKSNTVPRLLENKDVNSFDLDEQDFADIAKLDINLRFNDPWDWDKIPIFV	40 mM
